In a melting point compilation (Tetko et al.; mined from patent text by program, amines drawn as free bases though some values may be those of a salt) one finds melting point data, which are given here for 89 molecules.

Turning to `CNC(=O)c1cccc(Cl)c1Nc1nc(Nc2ccc3c(c2)CCC(N2CCC(N4CCN(C)CC4)CC2)CC3)ncc1Cl` (centres undefined), the melting point – broadly, the temperature, or range, at which the solid turns liquid – was 171 to 175 °C.
`O=C(CN1CCNCCNCCNCC1)Nc1c(I)cc(I)c(C(=O)O)c1I`: the melting point lay within 245 to 246 °C.
Take `O=C(O)c1cc(N=C=S)cc(N=C=S)c1`: the melting point is 125 to 127 °C.
Under `CCCNC(=S)n1nc(Oc2ncc(C(F)(F)F)cc2Cl)cc1C` stands 51 to 53 °C; under `C=CCc1cccc2c(=O)c(C)c(C=Cc3ccccc3)oc12`, 126 °C.
For `O=C(C1CCCCC1)N1C=C2c3ccccc3CCN2C(=O)C1` the value was 136 to 138 °C.
Take `CCOC(=O)c1cnc2c(C)csc2c1NCc1ccccc1`: the melting point fell in the range of 99 to 100 °C.
The molecule `CCOC(=O)C(C)(C)Oc1ccc(CNc2ccccn2)cc1` returned a melting point of 78 to 79 °C.
Under `O=C1N=C2C=CC=CN2C1(Cc1ccccc1)Cc1ccc(F)cc1` (centres undefined) stands more than 300 °C; under `COc1ccccc1C1(O)C(O)CC(C)(C)C2CN(Cc3ccccc3)CC21` (centres undefined), 190 °C; under `O=c1cc(-c2ccncc2)nc2n1CCOCC2`, 156 to 159 °C.
`CCOC(=O)C(C)Oc1ncn(-c2ccccc2)n1` (centres undefined) had a melting point of 88 to 89 °C.
Turning to `COC(=O)c1[nH]c(C)c(Cc2ccccc2)c1N`, the melting point was in the range of 143 to 144 °C.
Take `CNC(=O)N(O)C(C)c1ccc(Cl)cc1` (centres undefined): the melting point is 117 to 120 °C.
Under `CCOC1(C(N)=O)c2ccccc2S(=O)(=O)N1Cc1ccc(Br)cc1F` (centres undefined) stands 175 to 177 °C.
Under `COCC1(C)CCCSc2cc(C#Cc3ccc(C(=O)O)cc3)ccc21` (centres undefined) stands 182 to 183 °C; under `CCCn1ncc2c(=O)[nH]c(-c3cc(S(=O)(=O)Cl)ccc3OCC)nc21`, 177 to 180 °C.
For `NS(=O)(=O)c1ccc(NC(=O)Nc2c(F)c(F)c(F)c(F)c2F)cc1` the value was 251 to 253 °C; for `CCOC(=O)/C=C(\c1ccc(C)cc1)c1ccc(OC)c(OC)c1`, 69 to 70 °C; for `CC1(O)CC(=O)OC(CCCc2ccc(OCc3ccccc3)cc2)C1Br` (centres undefined), 100 to 101 °C.
The molecule `CNCC(O)c1cccn1C` (centres undefined) gave a melting point of 64 to 66 °C.
For the molecule `NC(=O)c1ccc(F)c2c1CC(NCCCc1c[nH]c3ccc(Cl)cc13)CO2` (centres undefined), the melting point was in the range of 218 to 221 °C.
For `C=C1CN(c2c(F)cc3c(=O)c(C(=O)O)cn(C4CC4)c3c2F)CC1NC` (centres undefined) the value was 239 to 243 °C; for `CCNC(=O)c1ccccc1C(F)(F)F`, 73 to 76 °C; for `COC(=O)c1cc(C23CC4CC(CC(C4)C2)C3)c(O)cc1O`, 167 to 169 °C.
For `Cc1c(N2CC[C@H](CNC3CC3)C2)c(F)cc2c(=O)c(C(=O)O)cn([C@@H]3C[C@@H]3F)c12` the value was 163 to 164 °C.
`N#Cc1ccc(NC(=O)c2cccc(OCc3ccc(F)c(F)c3)c2)cc1` had a melting point of 173 to 174 °C.
Under `O=c1c([N+](=O)[O-])c[nH]c2sccc12` stands 288 to 291 °C; under `O=C1NCCN1c1ccncc1`, 204 to 207 °C.
Turning to `CCSc1cc(C)nc(SCC)c1NC(=O)CCCCCCCSc1nc2c(C)c(Cl)cc(C(C)C)c2o1`, the melting point was 82 to 84 °C.
For `Fc1ccc(C(=C(c2ccccc2)C(F)(F)F)c2ccc(OCCN3CCOCC3)cc2)cc1` the value was 95 to 96 °C.
For `N=C(NCC1(O)COc2ccccc2OC1)Nc1ccccc1` the value was 184 to 187 °C; for `CON=CC1CCCN(C(=O)Oc2ccccc2)C1` (centres undefined), 40 to 41 °C.
In turn, `CCOCc1nc2c(N)nc3cc(O)ccc3c2n1CC(C)(C)NC(=O)NC(C)C` displayed a melting point of 163 to 168 °C.
`O=C(OCC(F)(F)F)c1ncn2c1CN=C(c1ccccc1F)c1cc(Br)ccc1-2`: the melting point lay within 223 to 224 °C.
Molecule `CSc1c(C(=O)O)ccc(C)c1C` gave a melting point of 118 to 120 °C.
Under `NC(=O)c1cnn2cccc2c1NC1CCC(O)CC1` (centres undefined) stands 192 °C.
In turn, `CC(C)(CCl)C(=O)COc1ccc(-c2ccc(Cl)cc2)cc1` came in with a melting point of 67 to 68 °C.
Molecule `CCSC(=O)c1c(C(F)(F)F)nc(C(F)F)c(C(=O)OC)c1N` displayed a melting point of 72 to 74 °C.
The molecule `O=C1NC(=S)SC1Cc1cccc2c1CCC(=O)N2Cc1ccc(Br)cc1` (centres undefined) yielded a melting point of 191 to 192 °C.
The molecule `c1ccc(-c2cc(CCC3CCNC3)c3ccccc3n2)cc1` (centres undefined) gave a melting point of 140 °C.
Take `N#Cc1ccsc1N=Cc1cccs1`: the melting point was in the range of 58 to 60 °C.
Under `Cc1ccc(S(=O)(=O)n2ccc3c(CO)cccc32)cc1` stands 125 to 126 °C.
For `CCOC(=O)c1c(Cl)c2cccnc2[nH]c1=O` the value was 172 °C; for `CCOCCOc1ccc2c(c1)C(N(CC)S(C)(=O)=O)CC(C)(C)O2` (centres undefined), 73 to 75 °C.
Turning to `Cc1c(C)c2c(c(C)c1N)CC(C)(CNCCN1CCCCC1)O2` (centres undefined), the melting point lay within 102 to 104 °C.
For `O=c1ccn(-c2cc3[nH]c(=O)c(=O)[nH]c3cc2[N+](=O)[O-])cc1Cl` the value was more than 300 °C; for `CCOc1nc2cccc(C(=O)OC)c2n1Cc1ccc(-c2ccccc2-c2nc(=O)s[nH]2)cc1`, 211 to 212 °C.
As to `O=[N+]([O-])c1cc(CO)cc([N+](=O)[O-])c1`, the melting point was determined as 89 °C.
`CCCCCCCCCCCCCCN(C(=O)CCCCCCCCCCC)C1(N)OC(CO)C(O)C(O)C1C(=O)C(N)C(=O)C(N)CO` (centres undefined): the melting point lay in the range of 141 to 143 °C.
For `CC(=O)NC=Cc1ccc(OC(C)=O)cc1` the value was 165 to 166 °C; for `CN(C)CC(=O)N1c2ccccc2N(C)S(=O)(=O)c2ccc(Cl)cc21`, 138 to 139 °C.
Turning to `COC(=O)C(C(=O)OC)C(C)(N)C(Cc1ccccc1[N+](=O)[O-])c1ccccc1` (centres undefined), the melting point was 114 °C.
For `O=C(O)c1c(Cc2cc3c(cc2Cl)OCO3)c(-c2ccccc2)nn1CC1CCCC(C(=O)O)C1` (centres undefined), the melting point is 130 °C.
Molecule `COc1cc(NC(C)=O)c2c(c1)OC(C)C2` (centres undefined) gave a melting point of 104 °C.
The molecule `CCOC(=O)Cc1c(C(=O)OCC)c(C)cn1CCO` gave a melting point of 133 to 135 °C.
For `COc1ccc2c(c1)C(CCCN1C(=O)c3ccccc3C1=O)=CCO2` the value was 78 to 80 °C.
In turn, `CN1CCC(=C2c3ccccc3C=Cc3ccc(I)cc32)CC1` registered a melting point of 166 to 170 °C.
Regarding `CCCCCN(C)C(=O)c1ccc(Cl)nn1`, the melting point is 98 to 101 °C.
In turn, `CCCc1nc2cnc3ccc([N+](=O)[O-])cc3c2s1` showed a melting point of 228 to 230 °C.
`Fc1ccccc1CN[C@H]1CCCN[C@H]1c1ccccc1` (relative stereo): the melting point was more than 260 °C.
`COc1ccc(S(=O)(=O)c2cc(O)c(O)cc2C)cc1NC(C)=O`: the melting point is 230 to 232 °C.
On to `Cc1ccc2c(c1)C=Cc1cc(C)ccc1C2c1cn(Cc2ccc(C(=O)Nc3nc(CC(=O)O)cs3)o2)c(=O)[nH]c1=S`, for which the melting point came out at 210 °C.
Consider `CC(=O)Nc1c(C(=O)c2ccccc2)[nH]c2cccc(F)c12`, for which the melting point is 131 to 133 °C.
Under `O=C(Nc1ccccc1)C1CSc2sccc2C1=O` (centres undefined) stands 155 to 158 °C; under `COc1cc(CC(=O)N2CCN(C(=O)CNC3CCN(Cc4ccccc4)CC3)C(c3ccccc3)C2)cc(OC)c1OC` (centres undefined), 53 to 56 °C; under `CCOc1ccccc1N1CCN(C(=O)Nc2nc3ccccc3nc2OCC)CC1`, 120 to 122 °C.
For `OC1CCCCc2cc(OCC3CCCCC3)ccc21` (centres undefined) the value was 102 to 103 °C; for `OCC1Cc2sccc2CN1C(=S)Nc1cccc2cnccc12` (racemic), 185 °C.
For the molecule `CC(C)OC(=O)OCC1(C)COC(=O)OC1`, the melting point fell in the range of 64 to 65 °C.
For `CCOC(=O)c1cnc2cn[nH]c2c1Sc1ccccc1` the value was 130 to 131 °C; for `Cc1cccc(NC(=O)NCC(=O)N2[C@@H](C(=O)N(C)c3ccccc3)CC[C@H]2c2ccccc2)c1` (racemic), 210 °C; for `CCCCS(=O)(=O)NC(=O)/C=C/c1c(C)nn(C)c1-n1ccc2cc(Cl)cnc21`, 245 to 248 °C.
For `CCCc1c(OCc2cccn3c(=O)c(CC(=O)O)cnc23)ccc(C(C)=O)c1O` the value was 239 to 243 °C; for `CCCc1cc(C(O)(CC)CC)ccc1-c1cc(CCc2ccc(CO)c(CO)c2)ccc1C`, 76 °C; for `COc1cc(COc2nn(-c3ccccc3)cc2C=O)ccc1OCc1nc(-c2ccccc2)cn1C`, 126 to 127 °C.
Molecule `CC(=O)N[C@@H](C)CO[C@H]1CC[C@H](n2cc3ccc(OCCC4CC4)cc3n2)CC1` registered a melting point of 98 to 99 °C.
On to `COC(=O)NC1CCc2sc(Cl)cc2C1` (centres undefined), for which the melting point was 120 to 121 °C.
The molecule `O=C(c1cnccn1)N1CCN(Cc2ccc3c(c2)Cc2c(-c4ccsc4)n[nH]c2-3)CC1` gave a melting point of 202 to 204 °C.
For `O=C(NCc1cccc(C(F)(F)F)c1)c1ccc2n1Cc1ccccc1N(C(=O)COc1ccc(Cl)cc1)C2` the value was 143 to 145 °C; for `CCCCCCCCCN(C)c1ccc(S(=O)(=O)Nc2ccccc2)cc1`, 113 to 116 °C; for `CCOC(=O)c1ccc(OC(F)F)cc1SC`, 83 to 85 °C.
For `CC(C)(C)c1cc(Br)c(C(C)(C)C)cc1N` the value was 89 to 90 °C.
`Cc1cccc(NC(=O)NC(CCC(=O)O)C(=O)N(CC(=O)OC(C)(C)C)c2ccccc2)c1` (racemic) returned a melting point of 191 °C.
`N=C(N)c1ccc(C(=O)N2CCCC2CC(=O)NCCC(=O)O)cc1` (centres undefined): the melting point is more than 250 °C.
For `CCCn1cc2c(C3C(=O)Nc4ccc(Br)cc43)nc(NCCN(C)C)nc2n1` (centres undefined), the melting point was in the range of 270 to 274 °C.
As to `c1ccc2c(c1)OCCc1c-2n(CCCN2CCCCC2)c2ccccc12`, the melting point was in the range of 65 to 66 °C.
Under `Cc1noc(NS(=O)(=O)c2ccc(Cl)c(Cl)c2)c1Br` stands 144 to 146 °C; under `CCCc1c(OCCCCCCc2ccc(C(=O)CCCC(=O)O)cc2CCC(=O)O)ccc2c1OCCC2=O`, 136 to 139 °C.
